Data taken from patent publication US20010007679A1, “(S,R) FORMOTEROL METHODS AND COMPOSITIONS” (priority 1999, published 2001).

How the values were obtained:
[1] = molecular target: human β1-adrenergic receptor (Homo sapiens, UniProt P08588); assay: Second series: binding competition, human β1; settings: for IC50: IC50 (nM) β1, Second series (human)
[2] = molecular target: human β2-adrenergic receptor (Homo sapiens, UniProt P07550); assay: Second series: binding competition, human β2; settings: for IC50: IC50 (nM) β2, Second series (human); for β2 Selectivity (β1/β2): Second series (human)
human β2-adrenergic receptor, sequence (P07550 whole entry): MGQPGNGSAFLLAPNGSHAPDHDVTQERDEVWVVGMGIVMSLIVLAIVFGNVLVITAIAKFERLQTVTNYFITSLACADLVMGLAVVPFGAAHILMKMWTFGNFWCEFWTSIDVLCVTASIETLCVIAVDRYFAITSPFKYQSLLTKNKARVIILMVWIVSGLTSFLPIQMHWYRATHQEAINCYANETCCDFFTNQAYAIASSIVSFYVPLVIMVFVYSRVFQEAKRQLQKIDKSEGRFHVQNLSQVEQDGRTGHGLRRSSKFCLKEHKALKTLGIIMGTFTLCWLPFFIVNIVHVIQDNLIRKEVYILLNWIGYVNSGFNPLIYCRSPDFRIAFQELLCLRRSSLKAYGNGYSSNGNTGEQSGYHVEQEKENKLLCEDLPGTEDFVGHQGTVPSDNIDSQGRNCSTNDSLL
Procedure: (R,S)- and (S,R)-desformoterol were screened, in duplicate at three concentrations (10^−9, 10^−7, 10^−5 M), for binding to human β1 and β2-adrenergic receptors. Compounds that inhibited specific binding ≧50% were then tested further at ten concentrations in duplicate in order to obtain full competition curves. Reference compounds were simultaneously tested at eight concentrations.

[3] = system: BEAS-2B cells; assay: Intrinsic activity: cAMP production by radioimmunoassay; format: cell-based; settings: 100-times the Kd concentration, relative to isoproterenol (set to 1.0)
Procedure: The assessment of intrinsic activity was evaluated in BEAS-2B cells grown to confluence. […] Samples were assayed for cAMP by radioimmunoassay.

human β1-adrenergic receptor, sequence (P08588 whole entry): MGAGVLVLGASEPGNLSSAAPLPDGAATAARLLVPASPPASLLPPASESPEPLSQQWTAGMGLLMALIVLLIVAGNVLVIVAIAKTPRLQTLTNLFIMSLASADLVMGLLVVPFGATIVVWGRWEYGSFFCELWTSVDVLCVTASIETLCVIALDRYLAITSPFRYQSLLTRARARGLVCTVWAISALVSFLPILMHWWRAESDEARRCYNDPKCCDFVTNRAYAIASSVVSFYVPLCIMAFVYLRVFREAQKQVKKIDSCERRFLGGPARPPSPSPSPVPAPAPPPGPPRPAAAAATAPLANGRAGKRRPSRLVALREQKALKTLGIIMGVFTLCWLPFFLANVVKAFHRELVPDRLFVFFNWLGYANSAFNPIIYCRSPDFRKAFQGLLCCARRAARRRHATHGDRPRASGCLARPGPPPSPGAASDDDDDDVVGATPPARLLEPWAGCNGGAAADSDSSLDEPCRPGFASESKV

| SMILES | IC50 [1] [nM] | IC50 [2] [nM] | β2 Selectivity (β1/β2) [2] | Intrinsic Activity (cAMP) [3] | inhibition at 10 µM ([1]; read-out: inhibition of specific binding at β1) [%] |
| --- | --- | --- | --- | --- | --- |
| COc1ccc(CC(C)NCC(O)c2ccc(O)c(N)c2)cc1 (single isomer, unassigned) [(R,S)-Desformoterol, 3-Amino-4-hydroxy-α-[[[2-(4-methoxyphenyl)-1-methylethyl]amino]methyl]-benzenemethanol] | 1790 | 3140 | 0.6 | – | – |
| COc1ccc(CC(C)NCC(O)c2ccc(O)c(N)c2)cc1 [(R,R/S,S)-Desformoterol, 3-Amino-4-hydroxy-α-[[[2-(4-methoxyphenyl)-1-methylethyl]amino]methyl]-benzenemethanol] | 5140 | 81.3 | 63 | – | – |
| COc1ccc(CC(C)NCC(O)c2ccc(O)c(N)c2)cc1 (single isomer, unassigned) [(R,R)-Desformoterol, 3-Amino-4-hydroxy-α-[[[2-(4-methoxyphenyl)-1-methylethyl]amino]methyl]-benzenemethanol] | 3180 | 35.6 | 89 | – | – |
| CC(C)(C)NC[C@H](O)c1ccc(O)c(CO)c1 [(R)-Albuterol] | – | – | – | 0.44 | – |
| COc1ccc(CC(C)NCC(O)c2ccc(O)c(N)c2)cc1 (single isomer, unassigned) [(S,S)-Desformoterol, 3-Amino-4-hydroxy-α-[[[2-(4-methoxyphenyl)-1-methylethyl]amino]methyl]-benzenemethanol] | 64700 | > 10000 | – | – | – |
| CC(C)NCC(O)c1ccc(O)c(O)c1 (stereo not drawn) [Isoproterenol] | – | – | – | 1.00 | – |
| COc1ccc(C[C@@H](C)NCC(O)c2ccc(O)c(N)c2)cc1 (stereo partly drawn) [(S,R)-Desformoterol, 3-Amino-4-hydroxy-α-[[[2-(4-methoxyphenyl)-1-methylethyl]amino]methyl]-benzenemethanol] | – | 1830 | – | – | 22 |
